As usually defined, the melting point is the temperature of the solid-liquid transition.

`CNC(=O)C(NC(=O)c1cn(C)nc1C(F)(F)F)C1(OC(=O)N(C)C)CCC1` (stereo not shown) [Example 1, Dimethylcarbamic acid 1-{methylcarbamoyl-[(1-methyl-3-trifluoromethyl-1H-pyrazole-4-carbonyl)amino]methyl}cyclobutyl ester]: the melting point was 190 °C.

For the origin of these results see US8133851B2, “Heteroaroyl-substituted serine amides” (BASF SE, priority 2007, dated 2012).
